Experimental data reported in BindingDB's records for patent US10954228 (The Trustees of The University of Pennsylvania, 2021).

Target: L-lactate dehydrogenase A chain (Homo sapiens, UniProt P00338)
Test: Biochemical Assay
Experimental: Test compounds were placed in a Greiner Bio-One (Monroe, N.C.) 1536-well black solid bottom assay plate. 200 millimolar (mM) Tris HCl, pH 7.4, 100 micromolar (μM) EDTA and 0.01% TWEEN-20, final concentration, was used as the assay buffer. The LDHA reagent was 2 nanomolar (nM) Human LDHA (Meridian Life Science, Inc., Memphis, Tenn.), final concentration, in assay buffer. The substrate reagent was 0.06 mM NADH and 0.2 mM sodium pyruvate, final concentration, in assay buffer. The resazurin/diaphorase coupling reagent was 0.037 mM resazurin and 0.133 milligrams per milliliter (mg/mL) diaphorase, final concentration, in assay buffer. The inhibition of LDHA activity was measured by fluorescence emission.

| Structure (SMILES) | IC50 [nM] |
| --- | --- |
| CCC#Cc1cc(-c2nn(-c3nc(C(=O)O)cs3)c(CC3CC3)c2Cc2ccc([S+](N)(=O)[O-])c(F)c2)ccc1F [US10954228, Compound 109] | < 100 |
| Cc1ccc(C#Cc2cccc(-c3nn(-c4nc(C(=O)O)cs4)c(C4CC4C4CC4)c3Cc3ccc([S+](N)(=O)[O-])c(F)c3)c2)s1 (stereo not given) [US10954228, Compound 134] | 100 to 1000 |
| NS(=O)(=O)c1ccc(Cc2c(-c3cccc(C(=O)N4CCCC4)c3)nn(-c3nc(C(=O)O)cs3)c2CC2CC2)cc1 [US10954228, Compound 145] | < 100 |
| CC(C)(C)NC(=O)c1cc(-c2nn(-c3nc(C(=O)O)cs3)c(CC3CC3)c2Cc2ccc([S+](N)(=O)[O-])c(F)c2)ccc1F [US10954228, Compound 147] | < 100 |
| CC(C)(C)NC(=O)c1cccc(-c2nn(-c3nc(C(=O)O)cs3)c(CC3CC3)c2Cc2ccc([S+](N)(=O)[O-])cc2)c1 [US10954228, Compound 188] | < 100 |
| CN(C)c1ccc(-c2cc(-c3nn(-c4nc(C(=O)O)cs4)c(CC4CC4)c3Cc3ccc(S(N)(=O)=O)c(F)c3)ccc2F)cc1 [US10954228, Compound 190] | < 100 |
| NS(=O)(=O)c1ccc(Cc2c(-c3ccc(F)c(-c4cccc(F)c4)c3)nn(-c3nc(C(=O)O)cs3)c2CC2CC2)cc1F [US10954228, Compound 196] | < 100 |
| CC(C)c1ccc(-c2cc(-c3nn(-c4nc(C(=O)O)cs4)c(CC4CC4)c3Cc3ccc(S(N)(=O)=O)c(F)c3)ccc2F)cc1 [US10954228, Compound 199] | < 100 |
| CC(C)c1cnc(-c2cccc(-c3nn(-c4nc(C(=O)O)cs4)c(CC4CC4)c3Cc3ccc(S(N)(=O)=O)c(F)c3)c2)nc1 [US10954228, Compound 216] | < 100 |
| CC(C)c1ccc(-c2cccc(-c3nn(-c4nc(C(=O)O)cs4)c(CC4CC4)c3Cc3ccc(S(N)(=O)=O)c(F)c3)c2)nc1 [US10954228, Compound 218] | < 100 |
